The values that follow are results of earlier work, collected in US20090142428A1, “Extracts from the Bark of Corynanthe Species and Use Thereof as Well as Medicaments, Dietetic Food Products and Pharmaceutical Preparations Containing Said Extracts” (DR. WILLMAR SCHWABE GMBH & CO. KG, priority 2005, published 2009).

This data set has as its system 5-α-reductase. Particulars: uptake of finasteride.

For `CC(C)(C)NC(=O)[C@H]1CC[C@H]2[C@@H]3CC[C@H]4NC(=O)C=C[C@]4(C)[C@H]3CC[C@]12C` [finasteride], the “reduction of the prostatic DHT concentration” value is recorded as “up to 85%”. In addition, the “average reduction of the prostate size” value (period of up to 12 months) was “about 20%”.
